Test results taken from patent publication EP1063992B1, “SULFURPENTA FLUOROPHENYL PYRAZOLES FOR CONTROLLING ECTOPARASITIC INFESTATIONS” (MERCK & CO., INC., priority 1998, dated 1999).
Read-outs that look alike come from different tables or passages of the source.

Tests used:
[1] = administered systemically, animals; cited from earlier work
[2] = system: fleas and ticks; conditions: topical application; cited from earlier work
[3] = Plasma drug level in treated dogs; format: in vivo, Beagle dogs; conditions: dog, sc, group 2: sucrose octaacetate/triacetin formulation, 10 mg/kg subcutaneously, read-out: peak plasma levels
Protocol: (§1) Beagle dogs of both sexes 21 to 31 months old and weighing from 10 to 16 kg were used. Groups of three dogs each were treated with the same active compound in different formulations as follows: • Group 1: topical formulation containing 10% w/v of active compound, 5% w/v polyvinylpyrrolidone 30 and ethanol qs to 100%v/v dosed at 5 mg/kg. • Group 2: long acting parenteral formulation containing 10% w/v of the active compound, 25% w/v of sucrose octaacetate, 1% w/v of propylene glycol octanoate decanoate and triacetin qs 100% v/v dosed subcutaneously at 10 mg/kg. • Group 3: long acting parenteral formulation containing 10% w/v active compound, 10% w/v poly(DL-lactide/glycolide)75/25, and qs 100% v/v 1:1 glycerol formal/triacetin dosed at 10 mg/kg subcutaneously. • Control group of three untreated dogs was included.
(§2) Blood samples were collected from animals in treatment groups on Day 0 at 1, 2, 3 and 6 hours after treatment, on Day 1 at 24 hours after treatment, and whenever emesis was observed. Blood samples were also collected when flea counts were determined. Animals were observed hourly for 6 hours post treatment for emesis.

[4] = Observation for emesis (vomition) in treated dogs; format: in vivo, Beagle dogs; conditions: 10 mg/kg subcutaneously
Protocol: as §1, §2

[5] = system: fleas; test: Activity against fleas in dogs (infestation with about 100 fleas, comb counts about 48 hours later); format: in vivo
Protocol: as §1
Treatments were administered once on Day 0. On Day 1 animals all animals were infested with approximately 100 fleas. Animals were combed and fleas counted and removed approximately 48 hours after infestation. Animals were infested on days 12 and 26, and combed and fleas counted and removed approximately 48 hours after infestation. Infestation/counting were repeated approximately monthly until efficacy fell below 80% [% efficacy = (1 - (mean flea count of treatment group ö mean flea count of control group) x 100).

Row | Compound | vomition [1] | duration of efficacy [2] | Cmax [3] [ng/mL] | vomition ([4]; group 2: sucrose octaacetate/triacetin formulation) | vomition ([4]; group 3: poly(DL-lactide/glycolide) formulation) | efficacy against fleas ([5]; group 1: topical formulation, 10% w/v active compound, 5 mg/kg once on Day 0, dogs, held for between 55 and 90 days) [%] | efficacy against fleas ([5]; group 2: long acting parenteral formulation (sucrose octaacetate/triacetin), 10 mg/kg subcutaneously once, dogs, maintained for up to between 5 and 6 months) [%] | duration of close to 100% efficacy against fleas ([5]; group 3: long acting parenteral formulation (poly(DL-lactide/glycolide)75/25, 1:1 glycerol formal/triacetin), 10 mg/kg subcutaneously once, dogs) [months] | efficacy against fleas ([5]; group 3: long acting parenteral formulation (poly(DL-lactide/glycolide)75/25, 1:1 glycerol formal/triacetin), 10 mg/kg subcutaneously once, dogs, for >12 months) [%]
1 | N#Cc1nn(-c2c(Cl)cc(C(F)(F)F)cc2Cl)c(N)c1[S+]([O-])C(F)(F)F (stereo not drawn) [Fipronil, fipronil] | known to cause vomition | not more than three months |  |  |  |  |  |  | 
2 | N#Cc1nn(-c2c(Cl)cc(S(F)(F)(F)(F)F)cc2Cl)c(N)c1SC(F)(F)F [active compound] |  |  | > 100 | Vomition occurred | No vomition was observed | > 90 | > 90 | > 12 | ~100
